In brackets after ≈: the same amount, converted by molar mass.
Experiments:
[1] = tested on: Septoria tritici (ATCC 26517); assay: Minimum Inhibitory Concentration (MIC) vs. Septoria tritici; format: cell-based; details: 50% reduction in growth of S. tritici, 22° C., seven days; for MIC: Zymoseptoria tritici, ATCC26517, 168 h, read-out: Septoria Rating (MIC)
Protocol: C. Minimum Inhibitory Concentration (MIC) vs. Septoria tritici Compounds were assessed for their ability to inhibit the growth of a common strain of the fungal plant pathogen Septoria tritici (ATCC 26517) using a procedure based on a Clinical and Laboratory Standards Institute (CLSI) microdilution assay protocol for filamentous fungi. Stock solutions of the test compounds and standards were prepared in DMSO at 6400 μg/mL. Each stock solution was used to prepare a 2-fold dilution series ranging from 16 to 0.016 μg/mL (total of 11 compound concentrations) in RPMI-1640 (Roswell Park Memorial Institute) medium containing 3-(N-morpholino)propanesulfonic acid (MOPS) buffer and 2% DMSO. A 100 μL aliquot of the dilutions was added to columns 1 (16 μg/mL compound) through 11 (0.016 μg/mL compound) of a 96-well microtiter plate. This format was replicated in a second row of the microtiter plate. Thus, each microtiter plate could include 11 concentrations of four test or control compounds replicated twice. A 100 μL aliquot of RPMI-1640/MOPS/2% DMSO medium was added to column 12 (no compound control) of the microtiter plate. A fresh culture of S. tritici was used to prepare a solution of approximately 5×10^4 colony-forming units per milliliter (cfu/mL) in RPMI/MOPS medium without DMSO. A 100 μL aliquot of this solution was added to all 96 wells in the microtiter plate. […] The assay plates were incubated at 22° C. for seven days in the dark without shaking. […] In each case of Table 3, the Septoria rating scale is as follows: […]

[2] = tested on: Puccinia recondita tritici = Puccinia triticina; assay: Fungicidal activity vs. leaf rust on wheat plants; format: in vivo; details: 50 ppm spray on wheat (Yuma), inoculated the following day, evaluated 7-9 days later; for pest or weed control at 50 ppm: read-out: Puccinia Rating (% Disease Control @ 50 ppm)
Excerpt: D. Evaluation of Fungicidal Activity Vs. Leaf Rust (Causal Agent Puccinia recondita Tritici=Puccinia triticina; Bayer code PUCCRT). […] Each pot contained 3-8 seedlings. These plants were sprayed until wet with the formulated test compounds. The compounds were formulated at 50 ppm in 10 vol. % acetone plus 90 vol. % Triton X water (deionized water 99.99 wt %+0.01 wt % Triton X100), giving a “formulated test compound.” Formulated test compounds were applied to plants using a turn table sprayer fitted with two opposing air atomization nozzles which delivered approximately 1500 L/ha of spray volume. On the following day, the leaves were inoculated with an aqueous spore suspension of Puccinia recondita tritici and the plants were kept in high humidity overnight to permit spores to germinate and infect the leaf. The plants were then transferred to a greenhouse until disease developed on untreated control plants. Disease severity was evaluated 7-9 days later, depending on the speed of disease development. In each case of Table 3, the Puccinia rating scale is as follows: […]

Row | Compound | MIC [1] [µg/mL] | pest or weed control at 50 ppm [2] [%] | Septoria Rating (MIC) [1] | Puccinia Rating (% Disease Control @ 50 ppm) [2]
1 | OC(Cn1cnnn1)(c1ccc(F)cc1F)C(F)(F)c1ccc(Oc2ccc(F)cc2)cn1 (stereo not drawn) [Compound 6, 2-(2,4-Difluorophenyl)-1,1-difluoro-1-(5-(4-fluorophenoxy)pyridin-2-yl)-3-(1H-tetrazol-1-yl)propan-2-ol] | ≤ 0.5 | 80 to 100 | – | –
2 | OC(Cn1cnnn1)(c1ccc(F)cc1F)C(F)(F)c1ccc(Oc2ccc(Cl)cc2)cn1 (stereo not drawn) [Compound 7, 1-(5-(4-Chlorophenoxy)pyridin-2-yl)-2-(2,4-difluorophenyl)-1,1-difluoro-3-(1H-tetrazol-1-yl)propan-2-ol] | ≤ 0.5 | 80 to 100 | – | –
3 | COc1ccc(C(F)(F)C(O)(Cn2cnnn2)c2ccc(F)cc2F)nc1 (stereo not drawn) [Compound 8, 2-(2,4-Difluorophenyl)-1,1-difluoro-1-(5-methoxypyridin-2-yl)-3-(1H-tetrazol-1-yl)propan-2-ol] | 0.5 to 1.5 (≈ 1.3 to 3.91 µM) | 80 to 100 | – | –
4 | N#Cc1ccc(COc2ccc(C(F)(F)C(O)(Cn3cnnn3)c3ccc(F)cc3F)nc2)cc1 (stereo not drawn) [Compound 9, 4-(((6-(2-(2,4-Difluorophenyl)-1,1-difluoro-2-hydroxy-3-(1H-tetrazol-1-yl)propyl)pyridin-3-yl)oxy)methyl)benzonitrile] | ≤ 0.5 | 80 to 100 | – | –
5 | N#Cc1ccc(COc2ccc(C(F)(F)C(O)(Cn3cnnn3)c3ccc(F)cc3F)nc2)cc1F (stereo not drawn) [Compound 10, 4-(((6-(2-(2,4-Difluorophenyl)-1,1-difluoro-2-hydroxy-3-(1H-tetrazol-1-yl)propyl)pyridin-3-yl)oxy)methyl)-2-fluorobenzonitrile] | ≤ 0.5 | 80 to 100 | – | –
6 | OC(Cn1cnnn1)(c1ccc(F)cc1F)C(F)(F)c1ccc(Oc2ccccc2)cn1 (stereo not drawn) [Compound 11, 2-(2,4-Difluorophenyl)-1,1-difluoro-1-(5-phenoxypyridin-2-yl)-3-(1H-tetrazol-1-yl)propan-2-ol] | ≤ 0.5 | 80 to 100 | – | –
7 | OC(Cn1cnnn1)(c1ccc(F)cc1F)C(F)(F)c1ccc(OCC(F)(F)F)cn1 (stereo not drawn) [Compound 12, 2-(2,4-Difluorophenyl)-1,1-difluoro-3-(1H-tetrazol-1-yl)-1-(5-(2,2,2-trifluoroethoxy)pyridin-2-yl)propan-2-ol] | ≤ 0.5 | 80 to 100 | – | –
8 | N#Cc1ccc(CSc2ccc(C(F)(F)C(O)(Cn3cnnn3)c3ccc(F)cc3F)nc2)c(F)c1 (stereo not drawn) [Compound 15, 4-(((6-(2-(2,4-Difluorophenyl)-1,1-difluoro-2-hydroxy-3-(1H-tetrazol-1-yl)propyl)pyridin-3-yl)thio)methyl)-3-fluorobenzonitrile] | ≤ 0.5 | 40 to 59 | – | –
9 | N#Cc1ccc(Oc2ccc(C(F)(F)C(O)(Cn3cnnn3)c3ccc(F)cc3F)nc2)cc1F (stereo not drawn) [Compound 17, 4-((6-(2-(2,4-Difluorophenyl)-1,1-difluoro-2-hydroxy-3-(1H-tetrazol-1-yl)propyl)pyridin-3-yl)oxy)-2-fluorobenzonitrile] | ≤ 0.5 | 80 to 100 | – | –
10 | OC(Cn1cnnn1)(c1ccc(F)cc1F)C(F)(F)c1ccc(OCc2ccc(OC(F)(F)F)cc2)cn1 (stereo not drawn) [Compound 21, 2-(2,4-Difluorophenyl)-1,1-difluoro-3-(1H-tetrazol-1-yl)-1-(5-((4-(trifluoromethoxy)benzyl)oxy)pyridin-2-yl)propan-2-ol] | ≤ 0.5 | 80 to 100 | – | –
11 | OC(Cn1cnnn1)(c1ccc(F)cc1F)C(F)(F)c1ccc(OCc2ccc(C(F)(F)F)cc2)cn1 (stereo not drawn) [Compound 22, 2-(2,4-Difluorophenyl)-1,1-difluoro-3-(1H-tetrazol-1-yl)-1-(5-((4-(trifluoromethyl)benzyl)oxy)pyridin-2-yl)propan-2-ol] | ≤ 0.5 | 80 to 100 | – | –
12 | OC(Cn1cnnn1)(c1ccc(F)cc1F)C(F)(F)c1ccc(OCc2cccc(F)c2F)cn1 (stereo not drawn) [Compound 23, 1-(5-((2,3-Difluorobenzyl)oxy)pyridin-2-yl)-2-(2,4-difluorophenyl)-1,1-difluoro-3-(1H-tetrazol-1-yl)propan-2-ol] | ≤ 0.5 | 80 to 100 | – | –
13 | OC(Cn1cnnn1)(c1ccc(F)cc1F)C(F)(F)c1ccc(OCc2ccc(C(F)(F)F)cc2F)cn1 (stereo not drawn) [Compound 24, 2-(2,4-Difluorophenyl)-1,1-difluoro-1-(5-((2-fluoro-4-(trifluoromethyl)benzyl)oxy)pyridin-2-yl)-3-(1H-tetrazol-1-yl)propan-2-ol] | ≤ 0.5 | 80 to 100 | – | –
14 | OC(Cn1cnnn1)(c1ccc(F)cc1F)C(F)(F)c1ccc(OCc2cccc(C(F)(F)F)c2)cn1 (stereo not drawn) [Compound 26, 2-(2,4-Difluorophenyl)-1,1-difluoro-3-(1H-tetrazol-1-yl)-1-(5-((3-(trifluoromethyl)benzyl)oxy)pyridin-2-yl)propan-2-ol] | ≤ 0.5 | 80 to 100 | – | –
15 | OC(Cn1cnnn1)(c1ccc(F)cc1F)C(F)(F)c1ccc(OCc2ccc(Cl)c(F)c2)cn1 (stereo not drawn) [Compound 27, 1-(5-((4-Chloro-3-fluorobenzyl)oxy)pyridin-2-yl)-2-(2,4-difluorophenyl)-1,1-difluoro-3-(1H-tetrazol-1-yl)propan-2-ol] | ≤ 0.5 | 80 to 100 | – | –
16 | OC(Cn1cnnn1)(c1ccc(F)cc1F)C(F)(F)c1ccc(OCc2ccc(F)c(F)c2)cn1 (stereo not drawn) [Compound 28, 1-(5-((3,4-Difluorobenzyl)oxy)pyridin-2-yl)-2-(2,4-difluorophenyl)-1,1-difluoro-3-(1H-tetrazol-1-yl)propan-2-ol] | ≤ 0.5 | 80 to 100 | – | –
17 | OC(Cn1cnnn1)(c1ccc(F)cc1F)C(F)(F)c1ccc(OCc2ccccc2)cn1 (stereo not drawn) [Compound 30, 1-(5-(Benzyloxy)pyridin-2-yl)-2-(2,4-difluorophenyl)-1,1-difluoro-3-(1H-tetrazol-1-yl)propan-2-ol] | – | – | A (≦0.5) | A (80-100)
18 | COc1cccc(COc2ccc(C(F)(F)C(O)(Cn3cnnn3)c3ccc(F)cc3F)nc2)c1 (stereo not drawn) [Compound 34, 2-(2,4-Difluorophenyl)-1,1-difluoro-1-(5-((3-methoxybenzyl)oxy)pyridin-2-yl)-3-(1H-tetrazol-1-yl)propan-2-ol] | ≤ 0.5 | 80 to 100 | – | –
19 | OC(Cn1cnnn1)(c1ccc(F)cc1F)C(F)(F)c1ccc(OCc2cc(F)cc(F)c2)cn1 (stereo not drawn) [Compound 35, 1-(5-((3,5-Difluorobenzyl)oxy)pyridin-2-yl)-2-(2,4-difluorophenyl)-1,1-difluoro-3-(1H-tetrazol-1-yl)propan-2-ol] | ≤ 0.5 | 80 to 100 | – | –
20 | OC(Cn1cnnn1)(c1ccc(F)cc1F)C(F)(F)c1ccc(OCc2ccccn2)cn1 (stereo not drawn) [Compound 37, 2-(2,4-Difluorophenyl)-1,1-difluoro-1-(5-(pyridin-2-ylmethoxy)pyridin-2-yl)-3-(1H-tetrazol-1-yl)propan-2-ol] | 0.5 to 1.5 (≈ 1.09 to 3.26 µM) | 80 to 100 | – | –
21 | OC(Cn1cnnn1)(c1ccc(F)cc1F)C(F)(F)c1ccc(OCC2CC2)cn1 (stereo not drawn) [Compound 39, 1-(5-(Cyclopropylmethoxy)pyridin-2-yl)-2-(2,4-difluorophenyl)-1,1-difluoro-3-(1H-tetrazol-1-yl)propan-2-ol] | ≤ 0.5 | 80 to 100 | – | –
22 | COc1ccc(COc2ccc(C(F)(F)C(O)(Cn3cnnn3)c3ccc(F)cc3F)nc2)cc1 (stereo not drawn) [Compound 41, 2-(2,4-Difluorophenyl)-1,1-difluoro-1-(5-((4-methoxybenzyl)oxy)pyridin-2-yl)-3-(1H-tetrazol-1-yl)propan-2-ol] | ≤ 0.5 | 80 to 100 | – | –
23 | CC(C)Oc1ccc(C(F)(F)C(O)(Cn2cnnn2)c2ccc(F)cc2F)nc1 (stereo not drawn) [Compound 42, 2-(2,4-Difluorophenyl)-1,1-difluoro-1-(5-isopropoxypyridin-2-yl)-3-(1H-tetrazol-1-yl)propan-2-ol] | 0.5 to 1.5 (≈ 1.22 to 3.65 µM) | 80 to 100 | – | –
24 | CC(C)COc1ccc(C(F)(F)C(O)(Cn2cnnn2)c2ccc(F)cc2F)nc1 (stereo not drawn) [Compound 43, 2-(2,4-Difluorophenyl)-1,1-difluoro-1-(5-isobutoxypyridin-2-yl)-3-(1H-tetrazol-1-yl)propan-2-ol] | ≤ 0.5 | 80 to 100 | – | –

Reference: patent US8748461B2, “Metalloenzyme inhibitor compounds” (Viamet Pharmaceuticals, Inc., priority 2011, dated 2014)
